Test results published in patent US12103915B2, “TEAD inhibitors and methods of uses thereof” (Insilico Medicine IP Limited, priority 2022, dated 2024).

Key:
NCI-H226 cells = experiment: Cell growth assay (CellTiter-Glo); format: cell-based, human; conditions: Homo sapiens, NCI-H226, 168 h, 7 days treatment, CellTiter-Glo luminescence, read-out: H226 CTG IC50
Protocol: Example A: Cell Growth Assay
CellTiter-Glo reagent (CTG reagent, Promega, G7573).
[…] Also seeding an extra plate as Day 0 control measurement. The microplates were incubated at 37° C., 5% CO2 overnight.
Compounds were 3-fold serial diluted in DMSO and final top-concentration was […], 10 points. 0.3% DMSO as vehicle control. In addition, […] of CTG reagent was added into the extra plate and incubated at room temperature for 30 minutes and detected luminescence signals as Day 0 control by using EnVision (PerkinElmer, 2104 Mutilabel Reader).
Incubated other compounds treated plates at 37° C. for another 7 days and […] of CTG reagent was added into the plates and incubated at room temperature for 30 minutes and detected luminescence signals.
Day 0 luminescence signals were used as negative control or baseline. • Signalday0=average luminescence signals of Day 0 control cells. • Signalblank control=average luminescence signals of blank control. • SignalDMSO vehicle control=average luminescence signals of Day 7 DMSO vehicle control cells. • Signalcpds treatment=luminescence signals of Day 7 compounds treatment cells. Inhibition %=1−(Signalcpds treatment−Signalblank control)/(SignalDMSO vehicle control−Signalblank control)*100.
(Inhibitory concentration 50% (IC50) and maximum inhibition % were calculated using dose response curves.

TEAD1 = TEAD1 (Homo sapiens, UniProt P28347); experiment: Thermal shift assay TEAD1; format: binding
Protocol: (§1) Example B: Thermal Shift Assay
(§2) 1) Prepare a fresh dilution of Protein Thermal Shift™ Dye (Applied Biosystems, 1000×) to 8× by […].
(§3) 2) To ensure the same DMSO concentration, the compounds were diluted as follows: Prepare 10 mM stock solution of compounds;
(§4) The final DMSO concentration was 0.1%
(§5) 10 μM: Diluting stock solution to 100 μM by using PBS.
(§6) 1 μM: Diluting stock solution to 1 mM by using DMSO, then dilute to 10 μM by using PBS.
(§7) TEAD1: the stock concentration was 2.9 mg/ml; the final concentration was 0.2 mg/ml. TEAD2: the stock concentration was 1.8 mg/ml; the final concentration was 0.08 mg/ml.
(§8) 4) Place the appropriate reaction plate or tubes on ice, then prepare the protein melt reactions:
(§9) 5) Pipet each reaction up and down 10 times to mix well.
(§10) 6) Seal the plate with MicroAmp™ Optical Adhesive Film, spin it at 1000 rpm for 1 minute.
(§11) 7) Set up and run on the qPCR instrument.
(§12) Using thermal Shift™ Software v1.3 to analysis.

TEAD2 = TEAD2 (Homo sapiens, UniProt Q15562); experiment: Thermal shift assay TEAD2; format: binding
Protocol: as §1, §2, §3, §4, §5, §6, §7, §8, §9, §10, §11, §12

TEAD3 = TEAD3 (Homo sapiens, UniProt Q99594); experiment: Thermal shift assay TEAD3; format: binding
Protocol: as §1, §2, §3, §4, §5, §6
TEAD3: the stock concentration was 2.4 mg/ml; the final concentration was 0.1 mg/ml.
as §8, §9, §10, §11, §12

TEAD4 = TEAD4 (Homo sapiens, UniProt Q15561); experiment: Thermal shift assay TEAD4; format: binding
Protocol: as §1, §2, §3, §4, §5, §6
TEAD4: the stock concentration was 2.3 mg/ml; the final concentration was 0.1 mg/ml.
as §8, §9, §10, §11, §12

Sequence of TEAD4 (Q15561 whole entry, species assumed): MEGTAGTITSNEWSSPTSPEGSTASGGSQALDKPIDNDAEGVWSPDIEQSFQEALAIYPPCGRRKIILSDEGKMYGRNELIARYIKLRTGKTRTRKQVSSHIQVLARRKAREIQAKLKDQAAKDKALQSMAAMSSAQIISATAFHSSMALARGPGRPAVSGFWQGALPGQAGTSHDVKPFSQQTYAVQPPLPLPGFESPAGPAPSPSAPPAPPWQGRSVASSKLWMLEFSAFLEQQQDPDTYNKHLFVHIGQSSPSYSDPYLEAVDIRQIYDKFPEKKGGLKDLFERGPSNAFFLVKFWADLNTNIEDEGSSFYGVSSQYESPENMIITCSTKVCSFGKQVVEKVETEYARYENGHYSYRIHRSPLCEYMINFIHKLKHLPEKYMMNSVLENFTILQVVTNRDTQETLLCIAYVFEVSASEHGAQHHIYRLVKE
Sequence of TEAD2 (Q15562 whole entry, species assumed): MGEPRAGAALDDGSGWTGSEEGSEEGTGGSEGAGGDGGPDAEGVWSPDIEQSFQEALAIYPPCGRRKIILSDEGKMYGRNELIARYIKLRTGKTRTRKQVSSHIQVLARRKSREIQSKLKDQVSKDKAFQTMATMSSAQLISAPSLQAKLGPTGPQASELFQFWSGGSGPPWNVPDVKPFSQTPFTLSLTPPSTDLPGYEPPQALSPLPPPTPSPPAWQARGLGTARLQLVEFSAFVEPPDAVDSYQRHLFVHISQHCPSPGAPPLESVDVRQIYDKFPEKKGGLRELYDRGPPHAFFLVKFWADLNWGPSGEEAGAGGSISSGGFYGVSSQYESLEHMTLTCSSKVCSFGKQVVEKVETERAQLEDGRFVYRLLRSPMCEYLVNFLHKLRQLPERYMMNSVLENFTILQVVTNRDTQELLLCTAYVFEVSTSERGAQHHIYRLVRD
Sequence of TEAD3 (Q99594 whole entry, species assumed): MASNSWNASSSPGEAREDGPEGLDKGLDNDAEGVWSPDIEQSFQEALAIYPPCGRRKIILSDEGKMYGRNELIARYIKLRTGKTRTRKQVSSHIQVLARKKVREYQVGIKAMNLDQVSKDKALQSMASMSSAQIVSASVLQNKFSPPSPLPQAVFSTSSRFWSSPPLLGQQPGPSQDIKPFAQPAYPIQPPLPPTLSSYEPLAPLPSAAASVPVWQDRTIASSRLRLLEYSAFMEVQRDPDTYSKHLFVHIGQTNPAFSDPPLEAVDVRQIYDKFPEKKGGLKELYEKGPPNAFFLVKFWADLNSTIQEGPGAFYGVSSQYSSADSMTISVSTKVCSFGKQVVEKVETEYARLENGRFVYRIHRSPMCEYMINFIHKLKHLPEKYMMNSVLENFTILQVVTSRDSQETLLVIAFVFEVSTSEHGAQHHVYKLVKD
Sequence of TEAD1 (P28347 whole entry, species assumed): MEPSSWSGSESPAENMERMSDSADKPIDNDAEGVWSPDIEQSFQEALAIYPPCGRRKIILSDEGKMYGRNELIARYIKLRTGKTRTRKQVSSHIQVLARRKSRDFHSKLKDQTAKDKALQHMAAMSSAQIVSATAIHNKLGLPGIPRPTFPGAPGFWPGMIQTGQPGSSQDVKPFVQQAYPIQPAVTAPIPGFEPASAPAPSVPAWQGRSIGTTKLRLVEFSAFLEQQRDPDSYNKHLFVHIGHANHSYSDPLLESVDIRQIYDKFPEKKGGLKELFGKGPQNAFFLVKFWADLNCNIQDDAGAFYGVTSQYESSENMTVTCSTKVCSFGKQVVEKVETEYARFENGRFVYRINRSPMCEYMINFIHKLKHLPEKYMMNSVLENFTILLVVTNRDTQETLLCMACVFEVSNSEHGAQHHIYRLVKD

Structure (SMILES)	IC50 (NCI-H226 cells) [nM]	TEAD1 ΔTm (TEAD1) [°C]	TEAD2 ΔTm (TEAD2) [°C]	TEAD3 ΔTm (TEAD3) [°C]	TEAD4 ΔTm (TEAD4) [°C]
CC(C)NC(=O)[C@@H]1C[C@H]1c1cc(-c2ccc(C(F)(F)F)cc2)cc2c1cnn2C (racemic) [Example 27]	100 to 500	0.6	0.5	0.3	0.6
Cn1cc2cc(Oc3ccc(C(F)(F)F)cc3)cc([C@@H]3C[C@H]3C(=O)N3CCC34CC(=O)C4)c2n1 (single isomer, unassigned) [Example 135]	100 to 500	25.0	25.0	18.0	6.9
Cn1cc2nc(Oc3ccc(C(F)(F)F)cc3)cc([C@H]3C[C@@H]3C(=O)N3CC(O)C3)c2n1 (single isomer, unassigned) [Example 108b]	< 100	7.9	9.1	8.8	8.3
Cc1cn2cc(Oc3ccc(C(F)(F)F)cc3)cc([C@H]3C[C@@H]3C(=O)N3CC(O)C3)c2n1 (single isomer, unassigned) [Example 85b]	< 100	7.4	7.1	1.8	4.4
O=C(O)[C@@H]1CC1c1cc(-c2ccc(C(F)(F)F)cc2)cc2c1cnn2C(F)F (mixture of isomers) [Example 9]	100 to 500	5.8	4.1	1.2	5.6
CN(C)C(=O)[C@@H]1C[C@H]1c1cc(Oc2ccc(C(F)(F)F)c(F)c2)cc2cn(C)nc12 (single isomer, unassigned) [Example 141]	< 100	9.3	16.2	11.4	12.0
O=C(O)[C@@H]1CC1c1cc(-c2ccc(C(F)(F)F)cc2)cc2cn(-c3cccnc3)nc12 (mixture of isomers) [Example 4]	1000 to 30000	5	1.6	1.1	4.2
Cn1cc2cc(Oc3ccc(C(F)(F)F)cc3)cc(C3C[C@H]3C(=O)N3C[C@H]4C[C@@H]3C[C@H]4O)c2n1 (single isomer, unassigned) [Example 103e]	< 100	6.9	9.1	1.8	8.7
Cn1cc2cc(Oc3ccc(C(F)(F)F)cc3)cc(C3C[C@H]3C(=O)N3CCC[C@@H]3C#N)c2n1 (single isomer, unassigned) [Example 72]	< 100	3.5	8.6	1.7	4.7
CNC(=O)[C@@H]1CC1c1cc(Oc2ccc(C(F)(F)F)cc2)cc2c1cnn2C (mixture of isomers) [Example 36]	< 100	6.8	12.9	4.6	4.3
C[C@@H](CO)NC(=O)[C@@H]1CC1c1cc(Oc2ccc(C(F)(F)F)cc2)cc2cn(C)nc12 (single isomer, unassigned) [Example 54]	< 100	8.5	9.8	1.2	9.5
Cn1cc2cc(Oc3ccc(C(F)(F)F)cc3)cc(C3C[C@H]3C(=O)N3C4COCC3C4)c2n1 (single isomer, unassigned) [Example 96]	< 100	10.5	13.1	12.3	12.6
Cn1cc2cc(Oc3ccc(C(F)(F)F)cc3)cc([C@@H]3C[C@H]3C(=O)N3CCO[C@H](CO)C3)c2n1 (single isomer, unassigned) [Example 61]	< 100	9.3	12.2	0.8	10.4
Cn1cc2cc(Oc3ccc(C(F)(F)F)cc3)cc(C3C[C@H]3C(=O)NC34CC(O)(C3)C4)c2n1 (single isomer, unassigned) [Example 102]	< 100	7.3	9.1	2.1	8.7
Cn1cc2cc(Oc3ccc(C(F)F)cc3)cc([C@H]3C[C@@H]3C(=O)N3CC(O)C3)c2n1 (single isomer, unassigned) [Example 89b]	< 100	8.6	12.4	8.8	11.4
CNC(=O)[C@@H]1CC1c1cc(-c2ccc(C(F)(F)F)cc2)cc2c1=NC(C)N=2 (mixture of isomers) [Example 22]	< 100	4.5	5.5	1.1	5.7
Cn1cc2cc(Oc3ccc(C(F)(F)F)cc3)cc([C@@H]3C[C@H]3C(=O)N=S(C)(C)=O)c2n1 (single isomer, unassigned) [Example 134]	< 100	6.8	6.0	1.5	5.8
CNS(=O)(=O)CCc1cc(N2CCC3(CCCC3)CC2)cc2cn(C)nc12 [Example 48]	1000 to 30000	6.3	9.4	1.9	8.4
CC(NC(=O)[C@@H]1C[C@H]1c1cc(-c2ccc(C(F)(F)F)cc2)cc2c1cnn2C)c1ccccn1 (mixture of isomers) [Example 28]	100 to 500	3.7	0.5	0.5	2.4
CNC(=O)[C@@H]1CC1c1cc(Oc2ccc(C(F)(F)F)cc2)cc2cn(C)nc12 (mixture of isomers) [Example 34]	< 100	8.5	12.7	6.6	10.3
Cn1cc2cc(Oc3ccc(C(F)(F)F)cc3)cc([C@@H]3C[C@H]3C(=O)N3CC(C)(O)C3)c2n1 (single isomer, unassigned) [Example 60]	< 100	9.5	12.7	11.2	12.3
CNC(=O)[C@@H]1CC1c1cc(-c2ccc(C(F)(F)F)cc2)cc2scnc12 (mixture of isomers) [Example 39]	1000 to 30000	0	0	0	0
